pIC50: −log10 of the molar value. Values after ≈ are worked out from the molar mass of the structure shown.
Key:
HepG2 [1] = experiment: Cytotoxicity against human HepG2 cells assessed as reduction in cell growth by MTT based colorimetric assay; type: functional
HCT-116 [2] = experiment: Cytotoxicity against human HCT-116 cells assessed as reduction in cell growth by MTT based colorimetric assay; type: functional
A-375 [3] = experiment: Cytotoxicity against human A-375 cells assessed as reduction in cell growth by MTT based colorimetric assay; type: functional
A549 [4] = experiment: Cytotoxicity against human A549 cells assessed as reduction in cell viability incubated for 24 hrs by MTT based colorimetric assay; type: functional; settings: A549, 24 h
[5] = Antiproliferative activity against human U373 cells assessed as inhibition of cell growth measured after 72 hrs by CTG assay; type: functional, cell-based; settings: U373 MG
SK-MEL-28 = experiment: Cytotoxicity against human SK-MEL-28 cells assessed as inhibition of cell growth incubated for 72 hrs by MTT assay; type: functional, cell-based; settings: SK-MEL-28, 72 h
A549 [6] = experiment: Antiproliferative activity against human A549 cells assessed as reduction in cell viability incubated for 48 hrs by MTT assay; type: functional, cell-based; settings: A549, 48 h
A549 [7] = experiment: Antiproliferative activity against human A549 cells assessed as cell growth inhibition; type: functional, cell-based
MCF7 [8] = experiment: Antiproliferative activity against human MCF7 cells assessed as reduction in cell viability incubated for 48 hrs by MTT assay; type: functional, cell-based; settings: MCF7, 48 h
HepG2 [9] = experiment: Antiproliferative activity against human HepG2 cells assessed as reduction in cell viability incubated for 72 hrs by CCK-8 assay; type: functional, cell-based; settings: HepG2, 72 h
[10] = molecular target: Indoleamine 2,3-dioxygenase 1 (Homo sapiens, UniProt P14902); experiment: Inhibition of IDO1 in human HeLa cells; type: cell-based
[11] = molecular target: Tryptophan 2,3-dioxygenase (Homo sapiens, UniProt P48775); experiment: Inhibition of TDO (unknown origin) expressed in HEK293 cells; type: cell-based
HCT-116 [12] = experiment: Cytotoxicity against human HCT-116 cells assessed as inhibition of cell growth by MTT based colorimetric analysis; type: functional
HL-60 = experiment: Antiproliferative activity against human HL-60 cells assessed as reduction in cell viability incubated for 72 hrs by MTT assay; type: functional, cell-based; settings: HL-60, 72 h
A549 [13] = experiment: Antiproliferative activity against human A549 cells assessed as reduction in cell growth in presence of doxorubicin by CellTiter-Glo luminescent assay; type: functional, cell-based
HepG2 [14] = experiment: Cytotoxicity against human HepG2 cells assessed as inhibition of cell growth by MTT based colorimetric analysis; type: functional
A-375 [15] = experiment: Cytotoxicity against human A-375 cells assessed as inhibition of cell growth by MTT based colorimetric analysis; type: functional
NCI-H460 = experiment: Cytotoxicity against human NCI-H460 cells assessed as reduction in cell viability by MTS assay; type: functional, cell-based
MCF7 [16] = experiment: Cytotoxicity against human MCF7 cells assessed as reduction in cell viability by MTS assay; type: functional, cell-based
SF-268 = experiment: Cytotoxicity against human SF-268 cells assessed as reduction in cell viability by MTS assay; type: functional, cell-based
Bel-7402 = experiment: Antiproliferative activity against human Bel-7402 cells assessed as inhibition of cell growth measured after 48 hrs by CCK-8 assay; type: functional, cell-based; settings: Bel-7402, 48 h
P388 = experiment: Cytotoxicity against mouse P388 cells assessed as reduction in cell growth; type: functional; settings: read-out: ED50 (the source's name)
HCT-116 [17] = experiment: Antiproliferative activity against human HCT-116 cells assessed as reduction in cell growth incubated for 24 hrs by MTT assay; type: functional, cell-based; settings: HCT-116, 24 h
MCF7 [18] = experiment: Cytotoxicity against human MCF7 cells assessed as reduction in cell viability measured after 48 hrs by MTT assay; type: functional, cell-based; settings: MCF7, 48 h

Chain of Indoleamine 2,3-dioxygenase 1 (P14902 whole entry): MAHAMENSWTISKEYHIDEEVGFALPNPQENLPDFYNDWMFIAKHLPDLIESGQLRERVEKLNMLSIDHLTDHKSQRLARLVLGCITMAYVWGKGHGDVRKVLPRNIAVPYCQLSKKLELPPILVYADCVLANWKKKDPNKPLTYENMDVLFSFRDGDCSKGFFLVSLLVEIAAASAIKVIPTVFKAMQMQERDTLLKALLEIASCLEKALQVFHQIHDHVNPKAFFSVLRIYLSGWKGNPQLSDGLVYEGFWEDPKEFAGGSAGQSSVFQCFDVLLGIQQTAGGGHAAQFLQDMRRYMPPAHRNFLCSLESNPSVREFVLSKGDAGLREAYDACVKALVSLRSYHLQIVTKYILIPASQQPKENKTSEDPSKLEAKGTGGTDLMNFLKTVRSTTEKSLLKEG
Chain of Tryptophan 2,3-dioxygenase (P48775 whole entry): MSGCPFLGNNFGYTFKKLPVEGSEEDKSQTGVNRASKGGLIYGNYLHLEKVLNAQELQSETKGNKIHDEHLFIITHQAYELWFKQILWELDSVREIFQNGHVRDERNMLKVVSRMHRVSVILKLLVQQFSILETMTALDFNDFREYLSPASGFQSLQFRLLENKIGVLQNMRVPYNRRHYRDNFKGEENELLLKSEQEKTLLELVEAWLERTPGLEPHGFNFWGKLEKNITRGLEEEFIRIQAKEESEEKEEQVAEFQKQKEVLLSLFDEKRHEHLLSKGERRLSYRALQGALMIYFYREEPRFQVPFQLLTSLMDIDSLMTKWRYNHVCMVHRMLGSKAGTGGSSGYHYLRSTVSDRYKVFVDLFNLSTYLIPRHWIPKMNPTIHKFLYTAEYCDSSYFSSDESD

CC(C)C[C@H]1NC(=O)[C@@H](C[C@]2(O)c3ccccc3N3C(=O)[C@@H](C)N[C@H]32)n2c1nc1ccccc1c2=O
pIC50 (HepG2 [1]): 4.12
pIC50 (HCT-116 [2]): 3.69
pIC50 (A-375 [3]): 3.80
pIC50 (A549 [4]): 6.27

C[C@H]1C(=O)N2c3ccccc3[C@@]3(C[C@@H](n4cnc5ccccc5c4=O)C(=O)O3)[C@@H]2N1O
pIC50 [5]: < 4.00
pIC50 (SK-MEL-28): < 4.00
pIC50 (A549 [6]): 6.27
pIC50 (A549 [7]): < 4.00
pIC50 (MCF7 [8]): < 4.00
pIC50 (HepG2 [9]): 3.63

O=C1c2nc3ccc(CCN4CCOCC4)cc3c(=O)n2C2C=CC(F)=CC12 (centres undefined)
pIC50 [10]: 7.70
pIC50 [11]: 7.15

CC1(C)C(=O)N2c3ccccc3[C@@]3(C[C@@H](n4cnc5ccccc5c4=O)C(=O)O3)[C@@H]2N1O
pIC50 [5]: < 4.00
pIC50 (SK-MEL-28): < 4.00
pIC50 (A549 [7]): < 4.00
pIC50 (MCF7 [8]): < 4.00
pIC50 (HepG2 [9]): 3.63

O=C1O[C@]2(C[C@H]1n1cnc3ccccc3c1=O)C(=O)Nc1ccccc12
pIC50 [5]: < 4.00
pIC50 (SK-MEL-28): < 4.00
pIC50 (A549 [7]): < 4.00
pIC50 (MCF7 [8]): < 4.00
pIC50 (HepG2 [9]): 3.63

CCOC(=O)/C=C/c1ccc2nc3n(c(=O)c2c1)C1C=CC(F)=CC1C3=O (centres undefined)
pIC50 [10]: 7.70

CC(C)C[C@H]1NC(=O)[C@@H](C[C@]2(O)c3ccccc3N3C(=O)C(C)(C)N[C@H]32)n2c1nc1ccccc1c2=O
pIC50 (HCT-116 [12]): 4.07
IC50 (HL-60): 52 µg/mL (≈ 104 µM)
pIC50 (A549 [13]): 6.27
pIC50 (HepG2 [14]): 4.62
pIC50 (A-375 [15]): 4.12

O=C1OCC23Nc4ccccc4C(=O)N2c2ccccc2C13 (centres undefined)
pIC50 (NCI-H460): < 4.30
pIC50 (MCF7 [16]): < 4.30
pIC50 (SF-268): < 4.30

CC(C)/C=C1\NC(=O)[C@H](CCC(N)=O)n2c1nc1ccccc1c2=O [AURANTIOMIDE C]
IC50 (Bel-7402): 62 µg/mL (≈ 182 µM)

O=C1/C(=c2\c3ccccc3n3c(=O)c4ccccc4nc23)Nc2ccccc21 [CANDIDINE]
pIC50 (NCI-H460): < 4.30
pIC50 (MCF7 [16]): < 4.30
pIC50 (SF-268): < 4.30

C[C@@H]1N[C@H]2N(C1=O)c1ccccc1[C@@]2(O)C[C@@H]1C(=O)N[C@@H](C)c2nc3ccccc3c(=O)n21 [FUMIQUINAZOLINE A]
EC50 (P388): 6.1 µg/mL (≈ 13.7 µM)

C[C@@H]1NC(=O)[C@@H](Cc2c[nH]c3ccccc23)n2c1nc1ccccc1c2=O [FUMIQUINAZOLINE F]
EC50 (P388): 14.6 µg/mL (≈ 40.7 µM)

C[C@H]1NC(=O)[C@@H](Cc2c[nH]c3ccccc23)n2c1nc1ccccc1c2=O [FUMIQUINAZOLINE G]
EC50 (P388): 17.7 µg/mL (≈ 49.4 µM)

C[C@@H]1N[C@@H]2N(C1=O)c1ccccc1[C@@]21C[C@@H](n2cnc3ccccc3c2=O)C(=O)O1 [FUMITREMORGIN F]
pIC50 (HCT-116 [17]): 3.69
pIC50 [5]: 4.05
pIC50 (SK-MEL-28): < 4.00
pIC50 (A549 [7]): < 4.00
pIC50 (MCF7 [8]): < 4.00
pIC50 (HepG2 [9]): 3.63

O=C1c2c(O)cccc2-n2c1nc1ccccc1c2=O [PHAITANTHRIN C]
pIC50 (NCI-H460): < 4.30
pIC50 (MCF7 [16]): < 4.30
pIC50 (SF-268): < 4.30

COC(=O)c1c2ccccc2n2c(=O)c3ccccc3[nH]c12 [PHAITANTHRIN E]
pIC50 (NCI-H460): < 4.30
pIC50 (MCF7 [16]): < 4.30
pIC50 (SF-268): < 4.30

COC(=O)CC1(O)c2ccccc2-n2c1nc1ccccc1c2=O (centres undefined) [PHAITANTHRINS B]
pIC50 (NCI-H460): < 4.30
pIC50 (MCF7 [16]): < 4.30
pIC50 (SF-268): < 4.30

CC(=O)O[C@H](c1nc2ccccc2c(=O)n1[C@@H]1C[C@]2(OC1=O)c1ccccc1N1C(=O)C(C)(C)N(O)[C@H]12)C(C)C [TRYPTOQUIVALINE]
pIC50 (MCF7 [18]): 4.14

Reference: ChEMBL document CHEMBL5385851, “Natural quinazolinones: From a treasure house to promising anticancer leads” (Eur J Med Chem, 2023)
